According to patent US20180298344A1, “Realistic Humanized Model of Disease Matrix Environment for Evaluation of Therapeutic Reversal or Cell Fate” (Yale University, priority 2017, published 2018):

System: human microvascular pericytes (PC)
Experiment: Short term (7 day) myofibroblast differentiation of PC on low, medium, high stiffness hydrogels with TGF-β1 or bleomycin activation
Assay type: cell-based
Experimental: Human microvascular PC were isolated from a readily available and nearly inexhaustible source, human placental tissue, by microvascular segment explant outgrowth (Sava et al., Microcirculation, 2015, 22:54-67; Ayres-Sander et al., PLoS One, 2013, 8:e60025; Lauridsen et al., FASEB, 2014, 28:1166-1180; Maier et al., Microcirculation, 2010, 17:367-380). Human placental tissue was segmented, digested with collagenase, and the resulting cells were cultured in M199 (Gibco, Grand Island, NY, USA) medium supplemented with 20% FBS (Hyclone Laboratories, Logan, Utah, USA), and 1% penicillin-streptomycin (Gibco). Isolated pericytes were screened by flow cytometry against NG2 (H-300, Santa Cruz Biotechnology), CD90 (K-15, Santa Cruz), CD146 (P1H12, Biolegend, San Diego, Calif., USA), PDGFR-β (18A2, Santa Cruz), α-SMA (1A4, Santa Cruz), SMMHC (N-16, Santa Cruz), CD31 (C20, Santa Cruz), CD34 (581, Sigma) and CD45 (MEM-28, Sigma). As negative control, PC were incubated with isotype matched IgG. Samples were run on a Stratedigm S1000EXi Flow Cytometer (Stratedigm, San Jose, Calif. USA) and analyzed with FlowJo software (Tree Star, Ashland, Oreg., USA).
Polyacrylamide hydrogels were prepared as previously described (Tse and Engler, Current protocols in cell biology, editorial board, Juan S. Bonifacino et al, 2010, Chapter 10, Unit 10-16). Briefly, amino-silanated coverslips were prepared by treatment with 0.1M NaOH, followed by 3-aminopropyltriethoxysilane (Sigma), and crosslinked with glutaraldehyde. Chloro-silanated coverslips were treated with dichlorodimethylsilane (Sigma). Polyacrylamide solutions of varying stiffness were prepared by altering the concentrations of acrylamide (Bio-Rad, Hercules, Calif., USA) and bis-acrylamide (Bio-Rad). Ammonium persulfate (Sigma) and tetramethylethylenediamine (Bio-Rad) were used as cross-linkers. The solution was placed between the chloro-silanated and amino-silanated coverslips and cross-linked under ambient lighting for 30 minutes, after which the amino-silanated slide, containing the hydrogel, was hydrated in PBS. The ECM components were chemically conjugated to the polyacrylamide hydrogel using the naturally occurring amine residues on the proteins. Sulfa-SANPAH (Thermo Fisher, Grand Island, N.Y., USA) was added in 50 mM 4-(2-hydroxyethyl)-1-piperazineethanesulfonic acid buffer (Sigma) and the hydrogels were placed under UV light (365 nm, 10 mW/cm^2) for 15 minutes, and incubated overnight with either 0.5 mg/mL solubilized healthy or IPF human lung ECM, or isolated ECM proteins (0.1 mg/mL human plasma fibronectin (Millipore, Billerica, Mass., USA) and 0.1 mg/mL collagen I (Sigma). Validation of protein conjugation was performed by tagging ECM with NHS-Fluorescein (5/6-carboxyfluorescein succinimidyl ester), dialyzing overnight, and rinsed extensively (Syed et al., J Vis, Exp, 2015, 97).
For short term (7 day) differentiation studies, PC (passage 3-7) were seeded on healthy or IPF lung tissue slices, polyacrylamide hydrogels, or 25 mm glass coverslips (VWR) at 100×10^3 cells per sample and activated with control media (non-activated), or 1 ng/mL TGF-β1 (PeproTech, Rocky Hill, N.J., USA) for 7 days (18, 19). For bleomycin activation, the cells were activated with 1 μg/mL bleomycin sulfate (Cayman Chemical, Ann Arbor, Mich.) for 1 day and the media was replaced with non-activated media for the remaining 6 days (Sava et al., Microcirculation, 2015, 22:54-67; Sterling et al., J Bio Chem, 1983, 258:14438-14444). TGF-β1 and bleomycin concentrations were based on reports consistent with activation of fibroblasts (Sava et al., Microcirculation, 2015, 22:54-67; Maroni and Davis, Bio Reprod, 2012, 87:127). Treatment with CCG-1423 (Sigma) was performed at day 0 for the full 7 days, and labeled as early treatment, or at day 7 and performed for 7 days, and labeled as late treatment. […]

[1] = 7 days, low, medium, high stiffness hydrogels with fibronectin and collagen I, TGF-β1 1 ng/mL 7 days or bleomycin 1 μg/mL 1 day, flow cytometry

TGF-β1: transforming growth factor (TGF)-β1, fibrotic activator, used at 1 ng/mL
vimentin expression compared to non-activated PC on substrates of the same stiffness [1]: did not induce a significant increase
α-SMA expression compared to non-activated PC on substrates of the same stiffness [1]: did not induce a significant increase
proportion of α-SMA-expressing PC (soft or stiff hydrogels, up to 7 days, presence or absence of TGF-β1): failed to affect
